In US8680122B2, “Substituted pyrrolones as allosteric modulators of glucokinase” (Janssen Pharmacetica N.V., priority 2005, dated 2014):
Where “and” joins values, the source holds several entries; their conditions need not be identical. Equal values may be shown once.

What was measured:
Liver GK = target: T1, Liver GK (Homo sapiens, UniProt P35557); assay: Glucokinase enzyme assay, liver GK; type: biochemical; conditions: for EC50: concentration that produces 50% activation above the vehicle control; for EC100%: concentration that produces 100% activation above the vehicle control; for activation at 50 µM: percentage increase in GK activity above vehicle control, compound 50 μM, 12 mM glucose
T1 construct: (His)6; made in house; host or cells: Escherichia coli
T1 sequence (P35557 1-466 isoform P35557-2): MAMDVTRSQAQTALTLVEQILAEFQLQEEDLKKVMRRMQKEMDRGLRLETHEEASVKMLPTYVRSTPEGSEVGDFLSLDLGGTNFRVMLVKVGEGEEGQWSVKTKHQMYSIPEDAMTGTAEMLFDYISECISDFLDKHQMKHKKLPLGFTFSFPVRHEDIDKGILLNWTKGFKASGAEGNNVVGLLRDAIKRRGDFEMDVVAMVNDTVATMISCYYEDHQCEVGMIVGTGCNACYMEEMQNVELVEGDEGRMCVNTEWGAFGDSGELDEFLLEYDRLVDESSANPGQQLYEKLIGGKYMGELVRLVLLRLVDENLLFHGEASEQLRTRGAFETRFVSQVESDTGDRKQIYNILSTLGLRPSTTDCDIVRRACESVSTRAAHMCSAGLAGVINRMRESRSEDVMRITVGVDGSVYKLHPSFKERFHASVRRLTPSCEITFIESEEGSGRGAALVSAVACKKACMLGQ
Source text: (§1) An enzymatic Glucokinase (GK) assay using purified recombinant human liver/pancreas enzyme was used to evaluate the effects of potential small molecule modulators.
(§2) In this assay, GK catalyzes glucose phosphorylation in the presence of ATP. The product of this reaction, glucose-6-phosphate, was then oxidized by an excess of glucose-6-phosphate dehydrogenase to produce gluconate-6-phosphate with concomitant reduction of nicotinamide adenine dinucleotide (NAD). […] Human GK (Liver/Pancreas) was expressed in Escherichia coli as a (His) 6-tagged fusion protein and was purified by metal chelate affinity chromatography. The assay was performed in a final incubation volume of 80 μl in a 96-well clear low UV absorption plates. The incubation mixture consisted of 25 mM HEPES, 2 mM MgSO4, 1 mM dithiothreotol (DTT), 1 mg/mL bovine serum albumin (BSA), 1 mM ATP, 1 mM NAD, and 12 mM glucose, 10 units per mL glucose-6-phosphate dehydrogenase, and +/−300 ng per mL GK. For determination of the affinity (Km) and Vmax, different concentrations of glucose ranging from 0.5 mM to 40 mM were used in the assay; see Grimsby, J., Sarabu, R.; Grippo, J. F.; et. al. Science 2003, 301, 370-373. Production of reduced NAD (Nicotinamide Adenine Dinucleotide) was measured as changes in absorption at 340 nm in 96-well plate reader (Envision model #2101 Multilabel Plate reader). % Activation @ 50 μM was calculated as the percentage increase in GK activity above the vehicle control with the effective concentration of the compound being 50 μM. EC50% (μM) was calculated as the effective concentration of the compound that produces 50% activation above the vehicle control, and EC100% (μM) was calculated as the effective concentration of the compound that produces 100% activation above the vehicle control.

Pancreas GK = target: T2, Pancreas GK (Homo sapiens, UniProt P35557); assay: Glucokinase enzyme assay, pancreas GK; type: biochemical; conditions: for EC50: concentration that produces 50% activation above the vehicle control; for EC100%: concentration that produces 100% activation above the vehicle control; for activation at 50 µM: percentage increase in GK activity above vehicle control, compound 50 μM, 12 mM glucose
T2 construct: (His)6; made in house; host or cells: Escherichia coli
T2 sequence (P35557 1-465): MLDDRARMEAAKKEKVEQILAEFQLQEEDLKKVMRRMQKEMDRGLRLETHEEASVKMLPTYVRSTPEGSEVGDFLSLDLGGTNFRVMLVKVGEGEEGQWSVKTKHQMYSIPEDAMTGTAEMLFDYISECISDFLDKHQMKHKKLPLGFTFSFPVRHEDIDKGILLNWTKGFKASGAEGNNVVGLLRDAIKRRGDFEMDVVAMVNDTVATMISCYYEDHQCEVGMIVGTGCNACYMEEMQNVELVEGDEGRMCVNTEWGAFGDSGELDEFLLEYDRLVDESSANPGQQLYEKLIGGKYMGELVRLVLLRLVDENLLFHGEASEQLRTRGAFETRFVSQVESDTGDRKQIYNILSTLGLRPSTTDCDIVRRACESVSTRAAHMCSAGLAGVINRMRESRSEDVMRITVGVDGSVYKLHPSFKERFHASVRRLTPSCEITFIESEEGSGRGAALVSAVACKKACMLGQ
Source text: as §1, §2

SMILES: COc1ccc(CN2C(=O)C(C)=C(C)C2OCC(=O)Nc2ccc(C)cn2)cc1 (stereo not shown) [Compound 28, 2-[1-(4-Methoxy-benzyl)-3,4-dimethyl-5-oxo-2,5-dihydro-1H-pyrrol-2-yloxy]-N-(5-methyl-pyridin-2-yl)-acetamide]
- EC50 (Liver GK): 14.2 µM
- EC100% (Liver GK): >50 µM
- activation at 50 µM (Liver GK): 90%
- EC50 (Pancreas GK): 18.5 µM
- EC100% (Pancreas GK): >50 µM

SMILES: CC1=C(C)C(SCC(=O)Nc2ccccn2)N(Cc2cccs2)C1=O (stereo not shown) [Compound 24, 2-(3,4-Dimethyl-5-oxo-1-thiophen-2-ylmethyl-2,5-dihydro-1H-pyrrol-2-ylsulfanyl)-N-pyridin-2-yl-acetamide]
- EC50 (Liver GK): 8.4 µM
- EC100% (Liver GK): 26.7 µM
- activation at 50 µM (Liver GK): 172%
- EC50 (Pancreas GK): 13.6 µM
- EC100% (Pancreas GK): 37.3 µM
- activation at 50 µM (Pancreas GK): 124%

SMILES: COc1ccc(CN2C(=O)C(C)=CC2SCC(=O)Nc2ccccn2)cc1 (stereo not shown) [Compound 15, 2-[1-(4-Methoxy-benzyl)-4-methyl-5-oxo-2,5-dihydro-1H-pyrrol-2-ylsulfanyl]-N-pyridin-2-yl-acetamide]
- EC50 (Liver GK): 10 µM
- EC100% (Liver GK): 37.08 µM
- activation at 50 µM (Liver GK): 122%

SMILES: COc1ccc(CN2C(=O)C(C)=C(C)C2SCC(=O)Nc2ccc(Cl)cn2)cc1 (stereo not shown) [Compound 8, N-(5-Chloro-pyridin-2-yl)-2-[1-(4-methoxy-benzyl)-3,4-dimethyl-5-oxo-2,5-dihydro-1H-pyrrol-2-ylsulfanyl]-acetamide]
- EC50 (Liver GK): 2.72 µM
- EC100% (Liver GK): 9.77 µM
- activation at 50 µM (Liver GK): 169%

SMILES: COc1ccc(CN2C(=O)C(c3ccccc3)=CC2SCC(=O)Nc2nccs2)cc1 (stereo not shown) [Compound 3, 2-[1-(4-Methoxy-benzyl)-5-oxo-4-phenyl-2,5-dihydro-1H-pyrrol-2-ylsulfanyl]-N-thiazol-2-yl-acetamide]
- activation at 50 µM (Liver GK): 64.9%

SMILES: COC(=O)c1ccc(NC(=O)CSC2C(C)=C(C)C(=O)N2Cc2ccc3c(c2)CCO3)nc1 (stereo not shown) [Compound 37]
- EC50 (Pancreas GK): 1.09 µM
- EC100% (Pancreas GK): 1.09 µM
- activation at 50 µM (Pancreas GK): 209%

SMILES: COc1ccc(CN2C(=O)C(C)=C(C)C2SCC(=O)Nc2nccs2)cc1 (stereo not shown) [Compound 2, 2[1-(4-Methoxy-benzyl)-3,4-dimethyl-5-oxo-2,5-dihydro-1H-pyrrol-2-ylsulfanyl]-N-thiazol-2-yl-acetamide]
- EC50 (Liver GK): 9.4 µM
- activation at 50 µM (Liver GK): 169%

SMILES: COc1ccc(CN2C(=O)C(C)=C(C)C2SCC(=O)Nc2ccccn2)cc1 (stereo not shown) [Compound 5, 2-[1-(4-Methoxy-benzyl)-3,4-dimethyl-5-oxo-2,5-dihydro-1H-pyrrol-2-ylsulfanyl]-N-pyridin-2-yl-acetamide]
- EC50 (Liver GK): 3.3 µM
- EC100% (Liver GK): 8.3 µM
- activation at 50 µM (Liver GK): 222%

SMILES: COc1ccc(CN2C(=O)C(C)=C(C)C2SCC(=O)Nc2cnccn2)cc1 (stereo not shown) [Compound 6, 2-[1-(4-Methoxy-benzyl)-3,4-dimethyl-5-oxo-2,5-dihydro-1H-pyrrol-2-ylsulfanyl]-N-pyrazin-2-yl-acetamide]
- EC50 (Liver GK): 6.3 µM
- EC100% (Liver GK): 20.1 µM
- activation at 50 µM (Liver GK): 175%

SMILES: COc1ccc(CN2C(=O)C(C)=C(C)C2SCC(=O)Nc2ccccn2)c(OC)c1 (stereo not shown) [Compound 10, 2-[1-(2,4-Dimethoxy-benzyl)-3,4-dimethyl-5-oxo-2,5-dihydro-1H-pyrrol-2-ylsulfanyl]-N-pyridin-2-yl-acetamide]
- EC50 (Liver GK): 12.2 µM
- EC100% (Liver GK): 39.92 µM
- activation at 50 µM (Liver GK): 128%

SMILES: COC(=O)c1ccc(NC(=O)CSC2C(C)=C(C)C(=O)N2Cc2ccc(F)cc2)nc1 (stereo not shown) [Compound 35, 6-{2-[1-(4-Fluoro-benzyl)-3,4-dimethyl-5-oxo-2,5-dihydro-1H-pyrrol-2-ylsulfanyl]-acetylamino}-nicotinic acid methyl ester]
- EC50 (Pancreas GK): 0.98 µM
- EC100% (Pancreas GK): 5.3 µM
- activation at 50 µM (Pancreas GK): 156%

SMILES: COC(=O)c1ccc(NC(=O)CSC2C(c3ccccc3)=C(c3ccccc3)C(=O)N2Cc2ccc(OC)cc2)nc1 (stereo not shown) [Compound 4]
- EC50 (Liver GK): 19.8 µM and 24.5 µM
- EC100% (Liver GK): 37.3 µM and 30.4 µM

SMILES: CC1=C(C)C(SCC(=O)Nc2ccccn2)N(Cc2ccc(OC(F)F)cc2)C1=O (stereo not shown) [Compound 16, 2-[1-(4-Difluoromethoxy-benzyl)-3,4-dimethyl-5-oxo-2,5-dihydro-1H-pyrrol-2-ylsulfanyl]-N-pyridin-2-yl-acetamide]
- EC50 (Liver GK): 6.76 µM
- EC100% (Liver GK): 17.01 µM
- activation at 50 µM (Liver GK): 166%

SMILES: CC1=C(C)C(SCC(=O)Nc2ccccn2)N(Cc2ccc(F)cc2)C1=O (stereo not shown) [Compound 12, 2-[1-(4-Fluoro-benzyl)-3,4-dimethyl-5-oxo-2,5-dihydro-1H-pyrrol-2-ylsulfanyl]-N-pyridin-2-yl-acetamide]
- EC50 (Liver GK): 2.9 µM
- EC100% (Liver GK): 8.72 µM
- activation at 50 µM (Liver GK): 198%

SMILES: COC(=O)c1ccc(NC(=O)CSC2C(C)=C(C)C(=O)N2Cc2ccc(OC(F)F)cc2)nc1 (stereo not shown) [Compound 36, 6-{2-[1-(4-Difluoromethoxy-benzyl)-3,4-dimethyl-5-oxo-2,5-dihydro-1H-pyrrol-2-ylsulfanyl]-acetylamino}-nicotinic acid methyl ester]
- EC50 (Pancreas GK): 2.5 µM
- EC100% (Pancreas GK): 18 µM

SMILES: COC(=O)c1ccc(NC(=O)CSC2C(C)=C(C)C(=O)N2Cc2cc(OC)cc(OC)c2)nc1 (stereo not shown) [Compound 40]
- EC50 (Pancreas GK): 2.3 µM
- EC100% (Pancreas GK): 19 µM

SMILES: COC(=O)c1ccc(NC(=O)CSC2C(C)=C(C)C(=O)N2Cc2cccs2)nc1 (stereo not shown) [Compound 38, 6-[2-(3,4-Dimethyl-5-oxo-1-thiophen-2-ylmethyl-2,5-dihydro-1H-pyrrol-2-ylsulfanyl)-acetylamino]-nicotinic acid methyl ester]
- EC50 (Pancreas GK): 1.09 µM
- EC100% (Pancreas GK): 8.9 µM

SMILES: CCOC(=O)Cc1csc(NC(=O)CSC2C(C)=C(C)C(=O)N2Cc2ccc(OC)cc2)n1 (stereo not shown) [Compound 7, (2-{2-[1-(4-Methoxy-benzyl)-3,4-dimethyl-5-oxo-2,5-dihydro-1H-pyrrol-2-ylsulfanyl]-acetylamino}-thiazol-4-yl)-acetic acid ethyl ester]
- EC50 (Liver GK): 11.6 µM
- EC100% (Liver GK): 38.9 µM
- activation at 50 µM (Liver GK): 114%

SMILES: CC1=C(C)C(SCC(=O)Nc2ccccn2)N(Cc2ccc(N(C)C)cc2)C1=O (stereo not shown) [Compound 34, 2-[1-(4-Dimethylamino-benzyl)-3,4-dimethyl-5-oxo-2,5-dihydro-1H-pyrrol-2-ylsulfanyl]-N-pyridin-2-yl-acetamide]
- EC50 (Pancreas GK): 2.5 µM
- EC100% (Pancreas GK): 12 µM
- activation at 50 µM (Pancreas GK): 163%

SMILES: COC(=O)c1ccc(NC(=O)CSC2C(C)=C(C)C(=O)N2Cc2ccc(OC)c(OC)c2)nc1 (stereo not shown) [Compound 39]
- EC50 (Pancreas GK): 1.14 µM
- EC100% (Pancreas GK): 5.3 µM

SMILES: COc1ccc(CN2C(=O)C(C)=C(C)C2SCC(=O)Nc2ccc(C(=O)O)cn2)cc1 (stereo not shown) [Compound 33]
- EC50 (Pancreas GK): 2.5 µM and 1.6 µM

SMILES: COc1ccc(CN2C(=O)C(C)=C(C)C2SCC(=O)Nc2ccc(C)cn2)cc1 (stereo not shown) [Compound 9, 2-[1-(4-Methoxy-benzyl)-3,4-dimethyl-5-oxo-2,5-dihydro-1H-pyrrol-2-ylsulfanyl]-N-(5-methyl-pyridin-2-yl)-acetamide]
- EC50 (Liver GK): 1.4 µM
- EC100% (Liver GK): 4.9 µM
- activation at 50 µM (Liver GK): 215%

SMILES: COc1ccc(CN2C(=O)C(C)=C(C)C2SCC(=O)Nc2ccccn2)cc1OC (stereo not shown) [Compound 11, 2-[1-(3,4-Dimethoxy-benzyl)-3,4-dimethyl-5-oxo-2,5-dihydro-1H-pyrrol-2-ylsulfanyl]-N-pyridin-2-yl-acetamide]
- EC50 (Liver GK): 2.41 µM
- EC100% (Liver GK): 5.83 µM
- activation at 50 µM (Liver GK): 243%
